Columns and labels:
[1] = microsomes
Mtb Lpd = Mtb Lpd (Mycobacterium tuberculosis (strain ATCC 25618 / H37Rv), UniProt P9WHH9); assay type: biochemical; settings: read-out: LPD IC50

Row | SMILES | Human Liver Microsome Stability [1] | IC50 (Mtb Lpd)
1 | Cc1cc(S(=O)(=O)N(C)CC(=O)NC2COC2)c2n[nH]cc2c1 [Example 50] | 8 µL/min/mg | 73.8 nM
2 | COc1ccc(CNC(=O)CN(C)S(=O)(=O)c2cc(C)cc3c[nH]nc23)cc1 [Example 51] | 70 µL/min/mg | 49 nM
3 | Cc1cc(S(=O)(=O)N(C)CC(=O)Nc2ccc3ncccc3c2)c2n[nH]cc2c1 [Example 52] | 113 µL/min/mg | 21.8 nM
4 | Cc1cc(S(=O)(=O)N(C)CC(=O)Nc2ccc3cnccc3c2)c2n[nH]cc2c1 [Example 57] | 59 µL/min/mg | 32.8 nM
5 | Cc1cc(S(=O)(=O)N(C)CC(=O)Nc2ccc3cccnc3c2)c2n[nH]cc2c1 [Example 61] | 122 µL/min/mg | 22.9 nM
6 | Cc1cc(S(=O)(=O)N(C)CC(=O)Nc2ccc3ccncc3c2)c2n[nH]cc2c1 [Example 63] | 63 µL/min/mg | 32.1 nM
7 | Cc1cc(S(=O)(=O)N2CC[C@H]2C(=O)Nc2ccc3ccncc3c2)c2[nH]ncc2c1 [Example 71] | 132 µL/min/mg | 51.3 nM
8 | COc1ccc(NC(=O)[C@@H]2CCN2S(=O)(=O)c2cc(C)cc3cn[nH]c23)cc1Cl [Example 74] | 325 µL/min/mg | 48.8 nM
9 | Cc1cc(S(=O)(=O)N(C)CC(=O)Nc2nc3ccccc3o2)c2n[nH]cc2c1 [Example 76] | 274 µL/min/mg | 99.4 nM
10 | Cc1cc(S(=O)(=O)N2CC[C@H]2C(=O)Nc2ccc3cnccc3c2)c2[nH]ncc2c1 [Example 85] | 93 µL/min/mg | 23 nM
11 | Cc1cc(S(=O)(=O)N2CC[C@H]2C(=O)Nc2ccc3ncccc3c2)c2[nH]ncc2c1 [Example 87] | 111 µL/min/mg | 35 nM
12 | Cc1cc(S(=O)(=O)N(C)CC(=O)Nc2ccc3c(c2)OCCN3C2COC2)c2[nH]ncc2c1 [Example 94] | 45 µL/min/mg | 27.5 nM
13 | Cc1cc(S(=O)(=O)N(C)CC(=O)Nc2ccn(C)c(=O)c2)c2n[nH]c(F)c2c1 [Example 95] | 21 µL/min/mg | 51.3 nM
14 | Cc1cc(S(=O)(=O)N2CCC(C(=O)Nc3ccn(C)c(=O)c3)C2)c2[nH]ncc2c1 (stereo not shown) [Example 97] | -5 µL/min/mg | 41.9 nM
15 | Cc1cc(S(=O)(=O)N(C)CC(=O)Nc2ccn(C3CC3)c(=O)c2)c2[nH]ncc2c1 [Example 98] | 28 µL/min/mg | 93 nM
16 | Cc1cc(S(=O)(=O)N(C)CC(=O)Nc2ccn(C3COC3)c(=O)c2)c2[nH]ncc2c1 [Example 99] | 17 µL/min/mg | 56 nM
17 | Cc1cc(S(=O)(=O)N(C)CC(=O)Nc2ccn(C3CCOCC3)c(=O)c2)c2[nH]ncc2c1 [Example 100] | 6 µL/min/mg | 50 nM
18 | Cc1cc(S(=O)(=O)N(C)CC(=O)Nc2ccn3cnnc3c2)c2n[nH]cc2c1 [Example 102] | 31 µL/min/mg | 42 nM
19 | Cc1cc(S(=O)(=O)N(C)CC(=O)Nc2ccc3c(c2)OCCN3C(C)(C)CO)c2[nH]ncc2c1 [Example 105] | 56 µL/min/mg | 27 nM
20 | Cc1cc(S(=O)(=O)N2CC[C@H]2C(=O)Nc2ccc3cccnc3c2)c2[nH]ncc2c1 [Example 106] | 236 µL/min/mg | 19 nM
21 | Cc1cc(S(=O)(=O)N(C)CC(=O)Nc2ccc3c(c2)OCCN3C2CCOCC2)c2n[nH]c(F)c2c1 [Example 121] | 125 µL/min/mg | 25.3 nM
22 | Cc1cc(S(=O)(=O)N2CC[C@@H](C(=O)Nc3ccc4c(c3)OCCN4C3CCOCC3)C2)c2n[nH]cc2c1 [Example 122] | 26 µL/min/mg | 30.4 nM
23 | Cc1cc(S(=O)(=O)N2CC[C@@H](C(=O)Nc3ccc4c(c3)OCCN4C3COC3)C2)c2[nH]ncc2c1 [Example 123] | 23 µL/min/mg | 28.6 nM
24 | Cc1cc(S(=O)(=O)N(C)CC(=O)Nc2ccn(C)c(=O)c2)c2[nH]c(C#N)cc2c1 [Example 124, 2-((2-cyano-N,5-dimethyl-1H-indole)-7-sulfonamido)-N-(1-methyl-2-oxo-1,2-dihydropyridin-4-yl)acetamide] | 51 µL/min/mg | 79.6 nM
25 | Cc1cc(S(=O)(=O)N(C)CC(=O)NCc2cn(-c3ccccc3)nn2)c2[nH]ncc2c1 [Example 125, 2-((N,5-dimethyl-1H-indazole)-7-sulfonamido)-N-((1-phenyl-1H-1,2,3-triazol-4-yl)methyl)acetamide] | 520 µL/min/mg | 48 nM

Row | SMILES | Human Liver Microsome Stability [1] | IC50 (Mtb Lpd)
26 | Cc1cc(S(=O)(=O)N2CC[C@H]2C(=O)NC2CCN(C)CC2)c2[nH]ncc2c1 [Example 129] | 418 µL/min/mg | 6560 nM
27 | Cc1cc(S(=O)(=O)N(C)CC(=O)Nc2ccc3c(c2)OCCN3C2COC2)c2n[nH]c(F)c2c1 [Example 140] | 66 µL/min/mg | 27.8 nM
28 | Cc1cc(S(=O)(=O)N2CC[C@H]2C(=O)Nc2ccc3c(c2)OCCN3C2COC2)c2n[nH]cc2c1 [Example 143] | 84 µL/min/mg | 36.2 nM
29 | Cc1cc(S(=O)(=O)N2CC[C@H]2C(=O)Nc2ccc3c(c2)OCCN3C2CCOCC2)c2n[nH]cc2c1 [Example 144] | 166 µL/min/mg | 37.9 nM
30 | CCN(CC(=O)Nc1ccc2c(c1)OCCN2C(C)(C)CO)S(=O)(=O)c1cc(C)cc2cn[nH]c12 [Example 145, 2-((N-ethyl-5-methyl-1H-indazole)-7-sulfonamido)-N-(4-(1-hydroxy-2-methylpropan-2-yl)-3,4-dihydro-2H-benzo[b][1,4]oxazin-7-yl)acetamide] | 92 µL/min/mg | 39 nM
31 | Cc1cc(S(=O)(=O)N(C)CC(=O)Nc2ccc3c(c2)OCCN3CC(C)(C)O)c2[nH]ncc2c1 [Example 146] | 31 µL/min/mg | 26 nM
32 | Cc1cc(S(=O)(=O)N2CC[C@H]2C(=O)Nc2ccc3c(c2)OCCN3C(C)(C)CO)c2[nH]ncc2c1 [Example 147] | 212 µL/min/mg | 37 nM
33 | Cn1ccc(NC(=O)[C@@H]2CCN2S(=O)(=O)c2cc(Cl)cc3c(F)n[nH]c23)cc1=O [Example 148] | -17 µL/min/mg | 40 nM
34 | Cn1ccc(NC(=O)[C@@H]2CCN2S(=O)(=O)c2cc(Cl)cc3cn[nH]c23)cc1=O [Example 149] | 14 µL/min/mg | 61 nM
35 | CN(CC(=O)Nc1ccn(C)c(=O)c1)S(=O)(=O)c1cc(Cl)cc2c(F)n[nH]c12 [Example 150] | 1 µL/min/mg | 46 nM
36 | Cn1ccc(NC(=O)[C@@H]2CCN2S(=O)(=O)c2cc(Br)cc3c(F)n[nH]c23)cc1=O [Example 151, (S)-1-((5-bromo-3-fluoro-1H-indazol-7-yl)sulfonyl)-N-(1-methyl-2-oxo-1,2-dihydropyridin-4-yl)azetidine-2-carboxamide] | -4 µL/min/mg | 180 nM
37 | Cn1ccc(NC(=O)[C@@H]2CCN2S(=O)(=O)c2cc(C(F)F)cc3cn[nH]c23)cc1=O [Example 152, (S)-1-((5-(difluoromethyl)-1H-indazol-7-yl)sulfonyl)-N-(1-methyl-2-oxo-1,2-dihydropyridin-4-yl)azetidine-2-carboxamide] | -7 µL/min/mg | 58 nM
38 | Cc1cc(S(=O)(=O)N2CC[C@H]2C(=O)Nc2ccc(N3CCN(C)CC3)c(Cl)c2)c2[nH]ncc2c1 [Example 153, (S)—N-(3-chloro-4-(4-methylpiperazin-1-yl)phenyl)-1-((5-methyl-1H-indazol-7-yl)sulfonyl)azetidine-2-carboxamide] | 113 µL/min/mg | 48 nM
39 | CCN(CC(=O)Nc1ccc2c(c1)OCCN2C1CCOCC1)S(=O)(=O)c1cc(C)cc2c[nH]nc12 [Example 156] | 58 µL/min/mg | 27.4 nM
40 | Cc1cc(S(=O)(=O)N(C)CC(=O)Nc2ccc3c(c2)OC(C)(C)CN3C)c2n[nH]cc2c1 [Example 158] | 46 µL/min/mg | 22 nM
41 | Cc1cc(S(=O)(=O)N(C)CC(=O)Nc2ccc3c(c2)OC(C)(C)C(=O)N3C)c2n[nH]cc2c1 [Example 159] | 67 µL/min/mg | 19 nM
42 | CCN(CC(=O)Nc1ccc(N2CCN(C)CC2)c(Cl)c1)S(=O)(=O)c1cc(C)cc2cn[nH]c12 [Example 160] | 107 µL/min/mg | 106 nM
43 | O=C(Nc1ccc2c(c1)OCCN2C1CCOCC1)[C@@H]1CCN1S(=O)(=O)c1cc(Cl)cc2cn[nH]c12 [Example 161] | 121 µL/min/mg | 33 nM
44 | O=C(Nc1ccc2c(c1)OCCN2C1CCOCC1)[C@@H]1CCN1S(=O)(=O)c1cc(Cl)cc2c(F)n[nH]c12 [Example 162] | 91 µL/min/mg | 59 nM
45 | Cc1cc(S(=O)(=O)N(C)CC(=O)Nc2ccc3c(c2)N(C2CCOCC2)CCO3)c2[nH]ncc2c1 [Example 163] | 94 µL/min/mg | 31 nM
46 | CN(C)CCOc1ccc(NC(=O)CN(C)S(=O)(=O)c2cccc3cn[nH]c23)cc1Cl [Example 164] | -16 µL/min/mg | 85 nM
47 | CN(CC(=O)Nc1ccc2c(c1)OCCN2C1CCOCC1)S(=O)(=O)c1cc(Cl)cc2c(F)n[nH]c12 [Example 165] | 162 µL/min/mg | 37 nM
48 | CN(CC(=O)Nc1ccc2c(c1)OCCN2C1CCOCC1)S(=O)(=O)c1cc(Cl)cc2cn[nH]c12 [Example 166] | 122 µL/min/mg | 34 nM
49 | Cc1cc(S(=O)(=O)N2CC[C@H]2C(=O)Nc2ccc(OCCN(C)C)c(Cl)c2)c2[nH]ncc2c1 [Example 168] | 1 µL/min/mg | 143 nM
50 | Cc1cc(S(=O)(=O)N(C)CC(=O)Nc2ccc3c(c2)N(C2COC2)CCO3)c2[nH]ncc2c1 [Example 169] | 39 µL/min/mg | 38 nM

From patent publication US20240132480A1, “INHIBITORS OF MYCOBACTERIUM TUBERCULOSIS LIPOAMIDE DEHYDROGENASE” (Cornell University, priority 2021, published 2024)
